Earlier results in US8722101B2, “Use of iron(III) complex compounds” (Vifor (International) AG, priority 2005, dated 2014).

Conditions: children with iron-related anaemia; administration for 75 days

For `O=S(=O)([O-])[O-].[Fe+2]` [iron sulfate], the “improvement in the mental and psychomotor development” value is listed as “did not find any improvement”.
